Values of other authors as cited in patent US6686348B2, “Metalloprotease inhibitors” (Les Laboratoires Servier, priority 2000, dated 2004).

Tested on: ovarian cancers
Details: Becket et al., DDT 1996

For CNC(=O)[C@H](Cc1ccccc1)NC(=O)[C@H](CC(C)C)[C@H](CSc1cccs1)C(=O)NO [BB94], the “anti-tumour activity in clinical use” value is listed as “active against ovarian cancers”.
